We go through 13 compounds from patent US11667602B2, “Compounds and their use” (AstraZeneca AB, priority 2020, dated 2023).

The structures appear in SMILES notation. ≈ marks a conversion by molar mass, not a printed value. Some results are limits rather than exact numbers.

The term solubility denotes the concentration that dissolves in the medium under given conditions. A lower solubility goes with little dissolved substance. For orientation: hepatocyte CLint means the rate of metabolic loss divided by the concentration. In general, EC50 refers to the concentration giving half of the maximal effect. In general, microsomal CLint refers to a measure of how fast metabolising enzymes remove a compound, apart from limits set by blood flow. Read a low microsomal CLint as slow turnover.

One data set in a line: Solubility (Test F). In kind it is physicochemical. Conditions: arithmetic mean if run multiple times. The protocol: The assay was conducted according to the Solubility Assay described in pages 164-167 of Wernevik, J. et al., “A Fully Integrated Assay Panel for Early Drug Metabolism and Pharmacokinetics Profiling”, Assay and Drug Development Technologies, 2020, 18(4), 157-179. Data are reported in Table 36 as solubility ([…]. Where the assay was run multiple times for the same compound, the arithmetic mean is reported.

A short description of data set [1]: Rat Hepatocyte Stability (Test E). In kind it is in vitro ADME. Conditions: rat, hepatocytes, geometric mean if run multiple times. The method in brief:
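Run per the published AstraZeneca-type rat hepatocyte stability protocol (Wernevik et al. panel). Values are mean intrinsic clearance, Clint in μl/min/10^6 cells; geometric mean used for repeated runs.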

Data set [2] is described as follows: Human Plasma Protein Binding (Test B). Conditions: fraction unbound (fu). In kind it is in vitro ADME. The method in brief: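 Human plasma protein binding run per the published Wernevik et al. (2020) integrated DMPK panel protocol. Values are fraction unbound (fu, % free); repeat runs averaged arithmetically.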
A further data set concerns the target T1, human RXFP1 (Homo sapiens, UniProt Q9HBX9).
T1 sequence (Q9HBX9 1-757): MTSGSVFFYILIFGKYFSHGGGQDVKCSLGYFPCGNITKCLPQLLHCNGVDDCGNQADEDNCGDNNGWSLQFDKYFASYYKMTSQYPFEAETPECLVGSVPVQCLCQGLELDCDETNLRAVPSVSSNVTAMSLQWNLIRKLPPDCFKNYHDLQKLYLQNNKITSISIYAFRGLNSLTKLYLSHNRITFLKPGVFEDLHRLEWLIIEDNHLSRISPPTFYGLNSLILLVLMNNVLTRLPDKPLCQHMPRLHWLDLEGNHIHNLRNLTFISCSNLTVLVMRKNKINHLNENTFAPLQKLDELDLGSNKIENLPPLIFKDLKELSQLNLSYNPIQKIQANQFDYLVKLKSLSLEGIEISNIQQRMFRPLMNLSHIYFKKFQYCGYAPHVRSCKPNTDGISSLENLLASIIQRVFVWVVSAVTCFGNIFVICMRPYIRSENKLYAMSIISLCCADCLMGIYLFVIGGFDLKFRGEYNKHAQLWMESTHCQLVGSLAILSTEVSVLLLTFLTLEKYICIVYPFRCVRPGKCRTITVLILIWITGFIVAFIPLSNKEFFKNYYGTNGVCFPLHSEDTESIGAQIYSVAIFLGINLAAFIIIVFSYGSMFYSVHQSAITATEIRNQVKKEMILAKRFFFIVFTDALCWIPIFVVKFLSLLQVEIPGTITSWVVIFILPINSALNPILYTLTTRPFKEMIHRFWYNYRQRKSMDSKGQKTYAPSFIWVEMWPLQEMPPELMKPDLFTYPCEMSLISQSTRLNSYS
As to the kind of experiment: RXFP1 Hu cAMP (Test A). In kind it is cell-based. Further details: expressed in transfected cells; host or cells: Jump-In T-REx CHO-K1 cells (ThermoFisher), induced with 10 ng/ml doxycycline for 24 h. Conditions: RXFP1 Hu cAMP; for EC50: read-out: Test A EC50. The method in brief: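 CHO-K1 (Jump-In T-REx), RXFP1 induced w/ 10 ng/ml doxycycline 24 h, cryopreserved. 0.5 mM IBMX final. cAMP by HTRF, 2 h RT, std curve.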

Data set [3] can be described thus: Human Liver Microsomal Stability (Test C). In kind it is in vitro ADME. Conditions: human, liver microsomes. The method in brief:
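Human liver microsome incubation per the Wernevik et al. integrated DMPK panel protocol. Intrinsic clearance reported as CLint in μl/min/mg protein, averaged arithmetically over repeat runs.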
In general terms: Liver microsomes are vesicles of endoplasmic reticulum, rich in cytochrome P450 enzymes.

In “Solubility (Test F)”, `COc1cc(F)c(O[C@H]2CC[C@@H](C(=O)O)CC2)cc1C(=O)N[C@@H]1[C@H]2CC[C@H](C2)[C@@H]1C(=O)Nc1cc(Cl)cnn1` [Example 30, (1S,4s)-4-(5-(((1S,2R,3S,4R)-3-((5-Chloropyridazin-3-yl)carbamoyl)bicyclo[2.2.1]heptan-2-yl)carbamoyl)-2-fluoro-4-methoxyphenoxy)cyclohexane-1-carboxylic acid] registered a solubility above 1000 µM. This compound had a hepatocyte CLint in data set [1] of 18 µL/min/1e6 cells. Besides, in data set [2], the “Test B Human Plasma Protein Binding (% free)” value is reported as 3.6 % free. Also, the EC50 on human RXFP1 is above 40 µM. Besides, the intrinsic clearance (microsomal CLint) in data set [3] is below 3 µL/min/mg.
In the data set “Solubility (Test F)”, `COc1cc(F)c(O[C@H]2CC[C@@](C)(C(=O)O)CC2)cc1C(=O)Nc1cccc(Cl)c1C(=O)NCC1(C)CCC1` [Example 54, (1s,4s)-4-(5-((3-Chloro-2-(((1-methylcyclobutyl)methyl)carbamoyl)phenyl)carbamoyl)-2-fluoro-4-methoxyphenoxy)-1-methylcyclohexane-1-carboxylic acid] gave a solubility of 2.8 µM (≈ 1.57 µg/mL). In addition, the hepatocyte CLint in data set [1] is 13 µL/min/1e6 cells. The “Test B Human Plasma Protein Binding (% free)” value in data set [2] is on record as 1.1 % free. Further, on human RXFP1, the “Test A Sinf” value is recorded as 108% and the half-maximal effective concentration (EC50) was found to be 0.49 µM. The compound further registered an intrinsic metabolic clearance (microsomal CLint) in data set [3] of 16 µL/min/mg.
In turn, `COc1cc(F)c(-c2ccc(OC(C)(C)C(=O)O)cc2)cc1C(=O)N[C@@H]1[C@H]2CC[C@H](C2)[C@@H]1C(=O)Nc1cccc(S(=O)(=O)C(F)(F)F)c1` [Example 256, 2-((2′-fluoro-4′-methoxy-5′-(((1S,2R,3S,4R)-3-((3-((trifluoromethyl)sulfonyl)phenyl)carbamoyl)bicyclo[2.2.1]heptan-2-yl)carbamoyl)-[1,1′-biphenyl]-4-yl)oxy)-2-methylpropanoic acid] returned a solubility in “Solubility (Test F)” below 7 µM. Besides, in data set [1], the hepatocyte CLint was determined as 12 µL/min/1e6 cells. Moreover, in data set [2], the “Test B Human Plasma Protein Binding (% free)” value stood at 0.050 % free. At human RXFP1, the “Test A Sinf” value is 99% and the EC50 was 0.25 µM. This compound registered an intrinsic metabolic clearance (microsomal CLint) in data set [3] of 8.1 µL/min/mg.
On to `COc1cc(C#N)c(O[C@H]2CC[C@@](C)(C(=O)O)CC2)cc1C(=O)N[C@@H]1[C@H]2CC[C@H](C2)[C@@H]1C(=O)NCC1(CC(C)C)CCC1` [Example 106], for which the solubility in “Solubility (Test F)” was found to be 170 µM (≈ 101 µg/mL). The hepatocyte CLint in data set [1] amounted to 29 µL/min/1e6 cells. In addition, in data set [2], the “Test B Human Plasma Protein Binding (% free)” value is recorded as 1.7 % free. Moreover, at human RXFP1, the “Test A Sinf” value worked out at 112% and the half-maximal effective concentration (EC50) turned out to be 0.0097 µM. In addition, the microsomal CLint in data set [3] is above 300 µL/min/mg.
Compound `COc1cc(F)c(O[C@H]2CC[C@@](C)(C(=O)O)CC2)cc1C(=O)Nc1c(C)cccc1C(=O)NCC1(C)CCC1` [Example 156, (1s,4s)-4-(2-Fluoro-4-methoxy-5-((2-methyl-6-(((1-methylcyclobutyl)methyl)carbamoyl)phenyl)carbamoyl)phenoxy)-1-methylcyclohexane-1-carboxylic acid] returned a solubility in “Solubility (Test F)” of 770 µM (≈ 416 µg/mL). In addition, the hepatocyte CLint in data set [1] is 22 µL/min/1e6 cells. The “Test B Human Plasma Protein Binding (% free)” value in data set [2] was 3.2 % free. For the same compound, at human RXFP1, the “Test A Sinf” value is given as 97%. In addition, the microsomal CLint in data set [3] was 4.3 µL/min/mg.
For `COc1cc(C#N)c(O[C@H]2CC[C@@](C)(C(=O)O)CC2)cc1C(=O)N[C@@H]1[C@H]2CC[C@H](C2)[C@@H]1C(=O)NCC1(C(C)C)CC1` [Example 78], in that order: 820 µM (≈ 464 µg/mL), 37 µL/min/1e6 cells, 6.9 % free, 120% and 44 µL/min/mg.
Turning to `COc1cc(F)c(O[C@H]2CC[C@@H](C(=O)O)CC2)cc1C(=O)N[C@@H]1[C@H]2CC[C@H](C2)[C@@H]1C(=O)Nc1cccc(C(F)(F)F)c1C` [Example 24], the solubility in “Solubility (Test F)” was determined as 590 µM (≈ 358 µg/mL). Besides, the intrinsic metabolic clearance (hepatocyte CLint) in data set [1] came to 45 µL/min/1e6 cells. Further, in data set [2], the “Test B Human Plasma Protein Binding (% free)” value is listed as 1.8 % free. Also, at human RXFP1, the “Test A Sinf” value amounted to 97% and the EC50 was 1 µM. The compound further yielded an intrinsic metabolic clearance (microsomal CLint) in data set [3] of 29 µL/min/mg.
`COc1cc(F)c(O[C@H]2CC[C@@H](C(=O)O)CC2)cc1C(=O)N[C@@H]1[C@H]2CC[C@H](C2)[C@@H]1C(=O)Nc1ccc(S(=O)(=O)C(F)(F)F)cc1` [Example 15, (1S,4s)-4-(2-Fluoro-4-methoxy-5-(((1S,2R,3S,4R)-3-((4-((trifluoromethyl)sulfonyl)phenyl)carbamoyl)bicyclo[2.2.1]heptan-2-yl)carbamoyl)phenoxy)cyclohexane-1-carboxylic acid] had a solubility in the data set “Solubility (Test F)” of 390 µM (≈ 256 µg/mL). Further, the hepatocyte CLint in data set [1] came out at 13 µL/min/1e6 cells. The “Test B Human Plasma Protein Binding (% free)” value in data set [2] is listed as 1.3 % free. Moreover, at human RXFP1, the “Test A Sinf” value turned out to be 94% and the EC50 was determined as 0.42 µM. The compound also displayed a microsomal CLint in data set [3] of 14 µL/min/mg.
Compound `COc1cc(F)c(O[C@H]2CC[C@@H](C(=O)O)CC2)cc1C(=O)N[C@@H]1[C@H]2CC[C@H](C2)[C@@H]1C(=O)Nc1cc(F)cc(C(F)(F)F)c1` [Example 29] came in with a solubility in “Solubility (Test F)” of 130 µM (≈ 79.4 µg/mL). Besides, the intrinsic clearance (hepatocyte CLint) in data set [1] amounted to 22 µL/min/1e6 cells. The “Test B Human Plasma Protein Binding (% free)” value in data set [2] worked out at 0.72 % free. For the same compound, at human RXFP1, the “Test A Sinf” value came out at 111% and the EC50 is 0.11 µM. In data set [3], this compound registered an intrinsic clearance (microsomal CLint) of 22 µL/min/mg.
As to `COc1cc(F)c(O[C@H]2CC[C@@H](C(=O)O)CC2)cc1C(=O)N[C@@H]1[C@H]2CC[C@H](C2)[C@@H]1C(=O)Nc1ccc(C(F)(F)F)cn1` [Example 13, (1S,4s)-4-(2-Fluoro-4-methoxy-5-(((1S,2R,3S,4R)-3-((5-(trifluoromethyl)pyridin-2-yl)carbamoyl)bicyclo[2.2.1]heptan-2-yl)carbamoyl)phenoxy)cyclohexane-1-carboxylic acid], the solubility in the data set “Solubility (Test F)” was found to be 520 µM (≈ 309 µg/mL). For the same compound, the hepatocyte CLint in data set [1] amounted to 10 µL/min/1e6 cells. In addition, in data set [2], the “Test B Human Plasma Protein Binding (% free)” value came out at 3.1 % free. Besides, on human RXFP1, the “Test A Sinf” value was 115% and the EC50 came out at 6.3 µM. The compound further gave an intrinsic metabolic clearance (microsomal CLint) in data set [3] of 24 µL/min/mg.
In the case of `COc1cc(F)c(O[C@H]2CC[C@@H](C(=O)O)CC2)cc1C(=O)N[C@@H]1[C@H](C(=O)Nc2ccc(F)c(C(F)(F)F)c2)[C@@H]2CC[C@H]1O2` [Example 50, (1S,4s)-4-(2-Fluoro-5-(((1R,2R,3S,4S)-3-((4-fluoro-3-(trifluoromethyl)phenyl)carbamoyl)-7-oxabicyclo[2.2.1]heptan-2-yl)carbamoyl)-4-methoxyphenoxy)cyclohexane-1-carboxylic acid], in the data set “Solubility (Test F)”, the concentration in solution (solubility) came to 60 µM (≈ 36.8 µg/mL). For the same compound, in data set [1], the hepatocyte CLint was below 1 µL/min/1e6 cells. The “Test B Human Plasma Protein Binding (% free)” value in data set [2] stood at 1.9 % free. Moreover, the half-maximal effective concentration (EC50) on human RXFP1 is above 50 µM. Besides, the intrinsic clearance (microsomal CLint) in data set [3] is below 3 µL/min/mg.
With `COc1ccc(O[C@H]2CC[C@@H](C(=O)O)CC2)cc1C(=O)N[C@@H]1[C@H]2CC[C@H](C2)[C@@H]1C(=O)Nc1cccc(S(=O)(=O)C(F)(F)F)c1` [Example 466, (1S,4s)-4-(4-Methoxy-3-(((1S,2R,3S,4R)-3-((3-((trifluoromethyl)sulfonyl)phenyl)carbamoyl)bicyclo[2.2.1]heptan-2-yl)carbamoyl)phenoxy)cyclohexane-1-carboxylic acid], the solubility in “Solubility (Test F)” is above 1000 µM. Moreover, in data set [1], the intrinsic clearance (hepatocyte CLint) amounted to 29 µL/min/1e6 cells. Moreover, the “Test B Human Plasma Protein Binding (% free)” value in data set [2] was determined as 2.1 % free. Besides, on human RXFP1, the “Test A Sinf” value was determined as 106% and the EC50 amounted to 0.093 µM. In addition, the intrinsic clearance (microsomal CLint) in data set [3] was 37 µL/min/mg.
In the data set “Solubility (Test F)”, `COc1cc(F)c(O[C@H]2CC[C@@H](C(=O)O)CC2)cc1C(=O)N[C@@H]1[C@H]2CC[C@H](C2)[C@@H]1C(=O)Nc1cccc(OC(F)F)c1` [Example 195] had a solubility of 860 µM (≈ 508 µg/mL). In data set [1], this compound had an intrinsic clearance (hepatocyte CLint) of 130 µL/min/1e6 cells. In addition, the “Test B Human Plasma Protein Binding (% free)” value in data set [2] is recorded as 1.6 % free. At human RXFP1, the “Test A Sinf” value came out at 131% and the EC50 came out at 0.83 µM. This compound also returned a microsomal CLint in data set [3] of 28 µL/min/mg.
